Test system: non-cancerous human breast cell line MCF-10A
Assay: Cell viability assay
Format: cell-based
Conditions: for EC50(C)/EC50 (B): selectivity ratio MCF-10A over BT-474; for EC50(C)/EC50(A): selectivity ratio MCF-10A over MCF-7

| Molecule | EC50(C)/EC50 (B) | EC50(C)/EC50(A) |
| --- | --- | --- |
| CC[P](CC)(CC)=[Au][S][C@@H]1O[C@H](COC(C)=O)[C@@H](OC(C)=O)[C@H](OC(C)=O)[C@H]1OC(C)=O [AF, [(2R,3R,4S,5R,6S)-3,4,5-tris(acetyloxy)-6-{[(triethyl-λ5-phosphanylidene)aurio]sulfanyl}oxan-2-yl]methyl acetate] | 0.81 ± 0.13 | 0.78 ± 0.11 |
| [Cl][Au].c1ccc(P(c2ccccc2)c2ccccc2)cc1 [[AuCl(PPh3)]] | 5.70 ± 0.43 | 5.30 ± 0.61 |
| [Au(mba)(PPh3)] | 1.57 ± 0.13 | 2.34 ± 0.35 |

Reference: PMC6691192 (Chemical communications (Cambridge, England), 2019)
